This is an account of results in ChEMBL document CHEMBL1122176, “Synthesis and antitumor activity of 10-alkyl-10-deazaminopterins. A convenient synthesis of 10-deazaminopterin” (J Med Chem, 1982).

Structures are written as SMILES. pKi: −log10 of the molar value. Converted amounts (≈) assume the structure as drawn. Where only a bound is given, the exact number is not on record here.

For data set [1], the system named is Enterococcus faecium. Description: Concentration required for the 50% growth inhibition of Streptococcus faecium ATCC 8043 organism at 1 ng/mL folate concentration. The class given is functional, organism-based.
Data set [2] has as its system Lacticaseibacillus casei. Description: Concentration required for the 50% growth inhibition of Lactobacillus casei ATCC 7469 organism at 1 ng/mL folate concentration. It counts as functional, organism-based.
The nature of data set [3]: Michaelis constant of compound was determined from affinity towards carrier component of transport mechanism.
Data set [4] can be described thus: Influx velocity of the compound. It counts as ADME.
The subject of data set [5] is L1210. Description: % increase in lifespan was measured at 15 mg/kg dosage after sc administration. To be noted: Mus musculus.
For data set [6], the system named is L1210. Description: Antitumor activity expressed as mean survival time against L1210 leukemia cells in mice after sc administration at dose 3 mg/kg. Particulars: route subcutaneous.
The nature of data set [7]: Concentration required for the 50% growth inhibition of Streptococcus faecium ATCC 8043 organism at 1 ng/mL folate concentration.
The target in data set [8] is Dihydrofolate reductase (Lactobacillus casei) (UniProt P00381). Description: Concentration required for the 50% growth inhibition of Lactobacillus casei dihydrofolate reductase enzyme. To be noted: Lacticaseibacillus casei.
Dihydrofolate reductase (Lactobacillus casei), sequence (P00381 whole entry): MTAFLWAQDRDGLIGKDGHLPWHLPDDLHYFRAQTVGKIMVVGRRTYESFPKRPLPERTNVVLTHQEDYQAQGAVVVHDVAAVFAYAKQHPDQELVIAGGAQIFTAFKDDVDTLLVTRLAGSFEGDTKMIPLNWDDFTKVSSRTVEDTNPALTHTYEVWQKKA
Data set [9] concerns L1210. Description: Minimum inhibitory concentration of compound was tested for growth inhibition of L1210 cells. It counts as functional. To be noted: Mus musculus.
Data set [10] is described as follows: The efflux rate constant of the compound. It counts as ADME.
Data set [11] deals with T1, Dihydrofolate reductase (Mus musculus, UniProt P00375).
T1 sequence (P00375 whole entry): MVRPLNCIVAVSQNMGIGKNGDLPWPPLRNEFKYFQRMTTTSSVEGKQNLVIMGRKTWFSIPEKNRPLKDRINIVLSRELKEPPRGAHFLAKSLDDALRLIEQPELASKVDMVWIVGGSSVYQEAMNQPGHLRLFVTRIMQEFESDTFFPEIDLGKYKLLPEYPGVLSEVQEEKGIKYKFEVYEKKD
The data set can be described thus: Tested for inhibition of dihydrofolate reductase enzyme.

Data set [12] relates to Enterococcus faecium. The data set can be described thus: Concentration required for the 50% growth inhibition of Streptococcus faecium MTX resist organism at 1 ng/mL folate concentration. The class given is functional, organism-based.
Data set [13] concerns L1210. Description: Antitumor activity expressed as mean survival time against L1210 leukemia cells in mice after sc administration at dose 15 mg/kg. To be noted: route subcutaneous.
Data set [14] deals with L1210. Description: % increase in lifespan was measured at 3 mg/kg dosage after sc administration. Particulars: Mus musculus.
For data set [15], the system named is L1210. The data set can be described thus: Minimum inhibitory concentration of compound was tested for growth inhibition of L1210 cells. It counts as functional. To be noted: Mus musculus.
Data set [16] has as its target T1, Dihydrofolate reductase. The data set can be described thus: Tested for inhibition of dihydrofolate reductase enzyme from mouse.

As a reminder, the Km is the substrate concentration at which the rate is half of its maximum. The term Vmax denotes the top rate of the reaction or transport when substrate is in excess. In general, ILS refers to how much longer treated animals lived than controls. As usually defined, the IC50 is the concentration needed to halve the response being measured. Low values mean higher potency, high ones lower potency. As usually defined, the MIC50 is the lowest concentration that inhibits either 50% of growth or 50% of the strains tested, depending on the study. A lower MIC50 goes with higher susceptibility. As usually defined, the pKi is −log10 of the Ki, conventionally taken in molar units. Higher therefore signals a small Ki. Consider `CC(C)(Cc1cnc2nc(N)nc(N)c2n1)c1ccc(C(=O)NC(CCC(=O)O)C(=O)O)cc1` (stereo not given), for which the Concentration in data set [1] is 0.25 ng/mL; in [2], 0.04 ng/mL; in data set [7] it was 0.25 ng/mL; in [12], more than 2000 ng/mL. The Michaelis-Menten constant (Km) in data set [3] amounted to 0.93 µM. Moreover, the Vmax in data set [4] came out at 8.31 nM/min/g. This compound also gave an increase in life span (ILS) at 15 mg/kg in data set [5] of 135%. Besides, the MST in data set [6] amounted to 16.1 days; in data set [13] it was 15.9 days. In data set [8], this compound registered an IC50 of 27 nM. In addition, in data set [9], the MIC50 is 0.00058 µM (≈ 0.271 ng/mL). The K in data set [10] was determined as 0.24 min⁻¹. In [11], this compound showed a negative-log Ki (pKi) of 11.59. This compound also gave an increase in lifespan (ILS) at 3 mg/kg in data set [14] of 143%.

In the case of `CC(C)(Cc1cnc2nc(N)nc(N)c2n1)c1ccc(C(=O)O)cc1`, the Concentration in data set [1] turned out to be 0.5 ng/mL; in data set [2], 3.6 ng/mL; in [7] it was 0.5 ng/mL; in data set [12], 40 ng/mL. 440 nM corresponded to half-maximal inhibition in [8] (IC50).

For `CCC(Cc1cnc2nc(N)nc(N)c2n1)c1ccc(C(=O)NC(CCC(=O)O)C(=O)O)cc1` (stereo not given), the Concentration in data set [1] was 0.37 ng/mL; in [2] it was 0.08 ng/mL; in data set [7], 0.37 ng/mL; in data set [12], 1300 ng/mL. In [3], the Michaelis constant (Km) amounted to 0.89 µM. Also, in [4], the maximal velocity (Vmax) was 7.8 nM/min/g. The same compound had an increase in life span (ILS) at 15 mg/kg in data set [5] of 211%. Moreover, the MST in [6] was 17.8 days; in data set [13], 20.5 days. In data set [8], half-maximal inhibition (IC50) was put at 27 nM. Further, the MIC50 in data set [9] is 0.00055 µM (≈ 0.257 ng/mL). The compound further showed a K in data set [10] of 0.2 min⁻¹. Moreover, in [14], the increase in lifespan (ILS) at 3 mg/kg was determined as 170%.

On to `CC(Cc1cnc2nc(N)nc(N)c2n1)c1ccc(C(=O)NC(CCC(=O)O)C(=O)O)cc1` (stereo not given), for which the Concentration in data set [1] was 0.32 ng/mL; in [2], 0.03 ng/mL; in data set [7] it was 0.32 ng/mL; in [12] it was 200 ng/mL. The Michaelis constant (Km) in [3] came out at 1.01 µM. For the same compound, in data set [4], the maximum rate (Vmax) amounted to 8.02 nM/min/g. In data set [5], this compound returned an increase in life span (ILS) at 15 mg/kg of 235%. In addition, the MST was found to be 18.6 days in data set [6] and 22.1 days in [13]. In addition, the IC50 in [8] was 28 nM. This compound also gave an MIC50 in data set [9] of 0.00051 µM (≈ 0.231 ng/mL). In [10], this compound gave a K of 0.23 min⁻¹. In addition, the negative-log Ki (pKi) in data set [11] was 11.62. Besides, the ILS at 3 mg/kg in data set [14] was 181%.

For `Nc1nc(N)c2nc(CNc3ccc(C(=O)N[C@@H](CCC(=O)O)C(=O)O)cc3)cnc2n1` [AMINOPTERIN], in data set [3], the Michaelis constant (Km) amounted to 1.21 µM. Besides, the Vmax in data set [4] is 7.83 nM/min/g. In addition, in data set [15], the MIC50 is 0.00061 µM (≈ 0.269 ng/mL). The negative-log Ki (pKi) in data set [16] was 11.64. In data set [10], this compound gave a K of 0.21 min⁻¹.

As for `Nc1nc(N)c2nc(CCc3ccc(C(=O)N[C@@H](CCC(=O)O)C(=O)O)cc3)cnc2n1`, the Concentration in [1] was 0.2 ng/mL; in data set [2], 0.01 ng/mL; in [7] it was 0.2 ng/mL; in data set [12], more than 2000 ng/mL. Also, the Michaelis-Menten constant (Km) in [3] is 0.96 µM. Moreover, in [4], the Vmax worked out at 8.13 nM/min/g. In addition, the ILS at 15 mg/kg in [5] came out at 178%. In addition, the MST was 17.3 days in data set [6] and 18.4 days in data set [13]. This compound also displayed an MIC50 in data set [9] of 0.00061 µM (≈ 0.268 ng/mL). The compound further returned a K in data set [10] of 0.23 min⁻¹. In data set [11], the negative-log Ki (pKi) is 11.68. Further, the ILS at 3 mg/kg in [14] turned out to be 162%.

Turning to `CC(Cc1cnc2nc(N)nc(N)c2n1)c1ccc(C(=O)O)cc1` (stereo not given), the Concentration was determined as 0.72 ng/mL in data set [1], 5 ng/mL in data set [2], 0.72 ng/mL in data set [7] and 60 ng/mL in data set [12]. The compound further showed an IC50 in data set [8] of 420 nM.

Regarding `CN(Cc1cnc2nc(N)nc(N)c2n1)c1ccc(C(=O)N[C@@H](CCC(=O)O)C(=O)O)cc1` [METHOTREXATE], the results for the Concentration in data set [1], in data set [2] and in data set [12] were 0.05 ng/mL, 0.01 ng/mL and 3500 ng/mL, respectively. Besides, in data set [3], the Michaelis constant (Km) worked out at 3.42 µM. For the same compound, the maximal velocity (Vmax) in data set [4] turned out to be 7.77 nM/min/g. The same compound showed an ILS at 15 mg/kg in [5] of 151%. Further, the MST worked out at 15.8 days in [6] and 16.6 days in data set [13]. The compound further gave an MIC50 in data set [9] of 0.00271 µM (≈ 1.23 ng/mL). Also, in data set [10], the K came to 0.19 min⁻¹. In addition, the increase in life span (ILS) at 3 mg/kg in data set [14] amounted to 139%.

As for `CCC(Cc1cnc2nc(N)nc(N)c2n1)c1ccc(C(=O)O)cc1` (stereo not given), the Concentration stood at 0.9 ng/mL in data set [1], 5.4 ng/mL in [2], 0.9 ng/mL in data set [7] and 50 ng/mL in data set [12]. The midpoint of inhibition in data set [8], the IC50, lay at 380 nM.
